Measurements from publication PMC3105092 (PLoS ONE, 2011).
“And” between values parts separate entries of the source, which are not always exact repeats. Equal values may be shown once.

Experiments:
hCPR [1] = target: T1, hCPR (Homo sapiens, UniProt P16435); test: Isothermal titration calorimetry of oxidised CPR with nucleotides in phosphate-free 100 mM BES, pH 7.0, 25 °C, single-site model; Kd = 1/Kobs.; assay type: binding
T1 construct: gene POR
T1 sequence (P16435 64-677): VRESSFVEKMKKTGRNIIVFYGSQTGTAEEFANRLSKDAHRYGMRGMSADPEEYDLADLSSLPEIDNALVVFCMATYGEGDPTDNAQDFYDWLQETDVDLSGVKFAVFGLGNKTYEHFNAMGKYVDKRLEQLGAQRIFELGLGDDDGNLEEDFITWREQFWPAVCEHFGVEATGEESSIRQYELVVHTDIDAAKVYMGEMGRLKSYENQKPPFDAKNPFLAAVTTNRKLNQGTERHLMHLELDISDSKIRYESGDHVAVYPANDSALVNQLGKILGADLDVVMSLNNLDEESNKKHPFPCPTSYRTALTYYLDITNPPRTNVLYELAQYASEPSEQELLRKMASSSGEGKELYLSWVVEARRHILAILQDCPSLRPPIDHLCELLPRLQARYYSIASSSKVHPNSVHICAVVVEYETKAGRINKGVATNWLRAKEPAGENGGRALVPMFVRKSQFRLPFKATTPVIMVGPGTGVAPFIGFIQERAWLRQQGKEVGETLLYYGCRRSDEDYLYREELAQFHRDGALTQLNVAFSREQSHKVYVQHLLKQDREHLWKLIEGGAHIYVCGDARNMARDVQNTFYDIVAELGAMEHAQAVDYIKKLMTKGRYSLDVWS
Description: Figure 3 represents the ITC binding isotherms resulting from the titration of AgCPR with 2′, 5′-ADP, NADP+ and 2′-AMP.

hCPR [2] = target: T1, hCPR; test: Inhibition of cytochrome c (50 µM) reduction in phosphate-free 0.1 M Tris-HCl pH 7.7/0.1 M KCl, 25 °C, started with 12 µM (AgCPR) or 5 µM (hCPR) NADPH.; assay type: biochemical; conditions: SEM; read-out: IC50 µM (±S.E.), Tris Buffer
Procedure: (§3) Measurement of cytochrome c reduction was carried out at 25°C with 50 µM cytochrome c and 0.75 pmol purified AgCPR or hCPR essentially as described [17] using 0.3 M potassium phosphate buffer, pH 7.7 or 0.1 M Tris-HCl, pH 7.7/0.1 M KCl, and different concentrations of 2′, 5′-ADP, 2′-AMP, NADP or diphenyliodonium chloride (all from Sigma-Aldrich, UK).

AgCPR [3] = target: T2, AgCPR (Anopheles gambiae, UniProt Q86QH5); test: Inhibition of cytochrome c (50 µM) reduction in 0.3 M potassium phosphate pH 7.7, 25 °C, started with 30 µM NADPH (AgCPR).; assay type: biochemical; set-up: Δ63AgCPR: soluble, membrane anchor (amino acids 2-63) deleted; His-tag removed by thrombin; expressed in E. coli; conditions: SEM; read-out: IC50 µM (±S.E.), Phosphate Buffer
Procedure: as §3

AgCPR [4] = target: T2, AgCPR; test: Inhibition of cytochrome c (50 µM) reduction in phosphate-free 0.1 M Tris-HCl pH 7.7/0.1 M KCl, 25 °C, started with 12 µM (AgCPR) or 5 µM (hCPR) NADPH.; assay type: biochemical; set-up: Δ63AgCPR: soluble, membrane anchor (amino acids 2-63) deleted; His-tag removed by thrombin; expressed in E. coli; conditions: SEM; read-out: IC50 µM (±S.E.), Tris Buffer
Procedure: as §3

[5] = target: T3, AgCPR (Anopheles gambiae NADPH-cytochrome P450 oxidoreductase) (Anopheles gambiae, UniProt Q86QH5); test: Isothermal titration calorimetry of nucleotide ligands with AgCPR; assay type: binding; conditions: for Kobs / TΔS / n (binding stoichiometry) / ΔG / ΔH: 25°C, 100 mM BES pH 7.0
T3 sequence (Q86QH5 64-679): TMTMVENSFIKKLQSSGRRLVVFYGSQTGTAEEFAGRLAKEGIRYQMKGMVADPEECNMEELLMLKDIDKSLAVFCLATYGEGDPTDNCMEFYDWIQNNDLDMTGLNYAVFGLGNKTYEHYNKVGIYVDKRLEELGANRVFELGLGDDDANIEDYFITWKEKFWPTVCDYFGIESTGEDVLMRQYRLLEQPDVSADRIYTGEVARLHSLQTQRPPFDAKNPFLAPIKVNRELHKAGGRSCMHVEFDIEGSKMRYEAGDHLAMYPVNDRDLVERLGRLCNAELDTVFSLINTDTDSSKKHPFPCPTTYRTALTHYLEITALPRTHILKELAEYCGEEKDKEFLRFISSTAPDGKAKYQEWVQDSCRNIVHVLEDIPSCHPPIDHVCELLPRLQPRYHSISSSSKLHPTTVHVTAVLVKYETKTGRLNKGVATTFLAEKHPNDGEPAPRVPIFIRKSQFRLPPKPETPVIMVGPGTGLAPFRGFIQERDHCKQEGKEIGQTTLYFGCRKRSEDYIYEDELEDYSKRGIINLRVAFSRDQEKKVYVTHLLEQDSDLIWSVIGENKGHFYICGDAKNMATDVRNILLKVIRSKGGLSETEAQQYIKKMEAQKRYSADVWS
Procedure: (§1) ITC experiments were performed using a ITC200 microcalorimeter (Microcal Inc/GE Healthcare). Protein samples were dialysed into 100 mM BES; pH 7.0 from 50% glycerol stocks stored at −20°C. The concentrations of all the proteins were determined by using Bradford assay. Samples were centrifuged at 13,000×g for 10 min and degassed at 23°C (2°C below the temperature at which the experiments were performed). All experiments were performed at 25°C. Typically, the protein concentration in the cell was 10–20 µM whilst ligand concentrations were in the range of 100–1000 µM. The data analysed using Origin 7.0 (Microcal) after subtracting the heats of dilution obtained from parallel experiments performed by injecting the nucleotide into the buffer. Thermodynamic parameters n (stoichiometry), K d (1/K a, the association constant), and Δ°H (enthalpy change) were obtained by nonlinear least-squares fitting of experimental data using the single-site binding model. The free energy of binding (ΔG°) and entropy change (ΔS°) were obtained using eqs 1 and 2.

hCPR (human CPR) = target: T4, hCPR (human CPR) (Homo sapiens, UniProt P16435); test: Isothermal titration calorimetry of nucleotide ligands with hCPR; assay type: binding; conditions: ITC, 25°C, 100 mM BES pH 7.0
T4 sequence (P16435 43-677 limits assumed): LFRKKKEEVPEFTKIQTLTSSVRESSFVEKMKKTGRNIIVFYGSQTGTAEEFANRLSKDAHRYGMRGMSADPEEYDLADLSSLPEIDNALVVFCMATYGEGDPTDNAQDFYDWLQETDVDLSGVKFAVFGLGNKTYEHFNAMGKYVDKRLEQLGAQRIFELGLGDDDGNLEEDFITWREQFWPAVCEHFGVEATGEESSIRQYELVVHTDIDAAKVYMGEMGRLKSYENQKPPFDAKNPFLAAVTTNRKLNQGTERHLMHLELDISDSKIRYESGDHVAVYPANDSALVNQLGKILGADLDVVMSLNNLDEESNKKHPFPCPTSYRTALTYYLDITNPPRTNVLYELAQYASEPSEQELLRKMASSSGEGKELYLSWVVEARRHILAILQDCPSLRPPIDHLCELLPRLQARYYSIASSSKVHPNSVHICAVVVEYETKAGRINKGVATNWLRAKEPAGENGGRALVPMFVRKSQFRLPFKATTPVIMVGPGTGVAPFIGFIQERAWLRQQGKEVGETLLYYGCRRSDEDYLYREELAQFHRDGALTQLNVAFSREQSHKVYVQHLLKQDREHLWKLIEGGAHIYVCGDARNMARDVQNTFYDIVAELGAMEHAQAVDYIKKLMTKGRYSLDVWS
Procedure: as §1

AgCPR [6] = target: T2, AgCPR; test: Inhibition of cytochrome c reduction by AgCPR; assay type: biochemical
Procedure: as §3

hCPR [7] = target: T5, hCPR (Homo sapiens, UniProt P16435); test: Inhibition of cytochrome c reduction by hCPR; assay type: biochemical
T5 sequence (P16435 43-677 limits assumed): T4 sequence (P16435 43-677 limits assumed)
Procedure: as §3

[8] = target: methionine synthase reductase; conditions: read-out: low affinity binding mode (Kd); cited from earlier work
[9] = target: T6, isolated apo-human FMN-binding domain of CPR (Homo sapiens, UniProt P16435); test: Isothermal titration calorimetry of FMN with apo-human FMN-binding domain; conditions: ITC, 25°C, 100 mM BES
T6 sequence (P16435 80-224 limits assumed): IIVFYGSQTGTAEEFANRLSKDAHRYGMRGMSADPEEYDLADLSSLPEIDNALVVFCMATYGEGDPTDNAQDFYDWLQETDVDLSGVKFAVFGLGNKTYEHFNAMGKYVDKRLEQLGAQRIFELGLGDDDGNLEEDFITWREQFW
Procedure: as §1
(§2) The binding affinity of FMN to the isolated FMN-binding domains of both A. gambiae and hCPR were also examined by titration of the apo-FMN binding domains (Figure 4). Both isotherms show reasonable binding and saturation of the apo-proteins is achieved with excess flavin.

[10] = target: isolated apo-A. gambiae FMN-binding domain of CPR (Anopheles gambiae, UniProt Q86QH5); test: Isothermal titration calorimetry of FMN with apo-A. gambiae FMN-binding domain; conditions: ITC
Procedure: as §1, §2

AgCPR [11] = target: T2, AgCPR; test: Cytochrome c and NADPH steady-state kinetics, AgCPR; assay type: biochemical; conditions: phosphate buffer, 50 µM NADPH, 25°C; read-out: Km cytc
Procedure: (§4) The rate of change of absorbance of horse heart cytochrome c (Sigma-Aldrich, UK) at 550 nm was measured at 25°C using a Cary 4000 UV-Visible spectrophotometer essentially as described [17]. For cytochrome c kinetics, 0.75 pmol purified AgCPR or hCPR was pre-incubated with 0–110 µM cytochrome c (dissolved in 0.3 M potassium phosphate buffer; pH 7.7 or 0.1 M Tris-HCl, pH 7.7/0.1 M KCl) in a total volume of 500 µl for 2 min at 25°C.

hCPR [12] = target: T5, hCPR; test: Cytochrome c and NADPH steady-state kinetics, hCPR; assay type: biochemical; conditions: phosphate buffer, 50 µM NADPH, 25°C; read-out: Km cytc
Procedure: as §4

[13] = target: human anchorless NADPH-cytochrome P450 oxidoreductase (hCPR) (human) (UniProt P16435)
[14] = target: Δ63AgCPR (Anopheles gambiae NADPH-cytochrome P450 oxidoreductase lacking the N-terminal membrane anchor) (Anopheles gambiae)
[15] = IC50 (±S.E.), inhibition of cytochrome c reduction, Human CPR, Phosphate Buffer (0.3 M potassium phosphate pH 7.7), 15 µM NADPH, 50 µM cytochrome c, 25°C
[16] = read-out: IC50 (±S.E.), inhibition of cytochrome c reduction
[17] = 25°C, 100 mM BES, A. gambiae apo-FMN domain

horse heart cytochrome c, sequence (P00004 whole entry): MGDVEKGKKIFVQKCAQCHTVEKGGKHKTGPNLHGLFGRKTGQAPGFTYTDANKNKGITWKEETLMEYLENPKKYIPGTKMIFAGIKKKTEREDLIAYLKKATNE
human anchorless NADPH-cytochrome P450 oxidoreductase (hCPR) (human), sequence (P16435 2-21): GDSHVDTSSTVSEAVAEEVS

Nc1ncnc2c1ncn2[C@@H]1O[C@H](COP(=O)(O)O)[C@@H](O)[C@H]1OP(=O)(O)O [2′,5′-ADP, adenosine 2′,5′-diphosphate]
Kd (hCPR [1]): 38 ± 3.8 nM
IC50 (hCPR [2]): 10 ± 1 µM
IC50 (AgCPR [3]): 262 ± 18 µM
IC50 (AgCPR [4]): 62 ± 7 µM

Nc1ncnc2c1ncn2[C@@H]1O[C@H](COP(=O)(O)O)[C@@H](O)[C@H]1OP(=O)(O)O [2′,5′-ADP]
Kd [5]: 410 ± 18 nM
binding (Kd) to AgCPR weaker than hCPR (fold) ([5]; ITC): ~10 fold
Kobs ([5]; ITC): 24.4±1.07 ×10^5 M^−1
TΔS ([5]; ITC): -4.73 kcal/mol
n (binding stoichiometry) ([5]; ITC): 1.01±0.03
ΔG ([5]; ITC): -8.40 kcal/mol
ΔH ([5]; ITC): -13.13 kcal/mol and -13.13 ± 0.35 kcal/mol
Kobs (hCPR (human CPR)): 263±26.3 ×10^5 M^−1
TΔS (hCPR (human CPR)): -9.97 kcal/mol
n (binding stoichiometry) (hCPR (human CPR)): 1.00±0.02
ΔG (hCPR (human CPR)): -10.39 kcal/mol
ΔH (hCPR (human CPR)): -20.36 kcal/mol and -20.36 ± 0.53 kcal/mol
IC50 of AgCPR relative to hCPR (fold higher) (AgCPR [6]; both phosphate and phosphate-free buffer): 6–10 fold
affinity for mosquito CPR lower than human (fold, from IC50) (AgCPR [6]; phosphate-free Tris buffer): 6 fold
IC50 (hCPR [7]; [15]): 28 ± 2 µM
Kd [8]: ~500 nM

Nc1ncnc2c1ncn2[C@@H]1O[C@H](CO)[C@@H](O)[C@H]1OP(=O)(O)O [2′-AMP, adenosine 2′-monophosphate]
Kd (hCPR [1]): 1600 ± 440 nM
IC50 (hCPR [2]): 280 ± 25 µM
IC50 (AgCPR [3]): 1090 ± 202 µM
IC50 (AgCPR [4]): 384 ± 27 µM

Nc1ncnc2c1ncn2[C@@H]1O[C@H](CO)[C@@H](O)[C@H]1OP(=O)(O)O [2′-AMP]
Kd [5]: 4000 ± 180 nM
Kobs ([5]; ITC): 2.51±0.11 ×10^5 M^−1
TΔS ([5]; ITC): -2.19 kcal/mol
n (binding stoichiometry) ([5]; ITC): 1.01±0.22
ΔG ([5]; ITC): -5.47 kcal/mol
ΔH ([5]; ITC): -7.66 ± 1.98 kcal/mol
Kobs (hCPR (human CPR)): 6.15±1.69 ×10^5 M^−1
TΔS (hCPR (human CPR)): -3.21 kcal/mol
n (binding stoichiometry) (hCPR (human CPR)): 1.02±0.06
ΔG (hCPR (human CPR)): -7.86 kcal/mol
ΔH (hCPR (human CPR)): -11.07 ± 0.88 kcal/mol
IC50 (AgCPR [6]; [16]): 468 µM
IC50 (hCPR [7]; [15]): 1090 µM
IC50 (hCPR [7]; [16]): 468 ± 41 µM

Cc1cc2nc3c(=O)[nH]c(=O)nc-3n(C[C@H](O)[C@H](O)[C@H](O)COP(=O)(O)O)c2cc1C [FMN, flavin mononucleotide]
Kd [9]: 23 ± 0.9 nM
Kobs [9]: 438±17.5 ×10^5 M^−1
n (binding stoichiometry) [9]: 1.00±0.01
ΔG [9]: -10.28 kcal/mol
ΔH [9]: -19.46 ± 0.35 kcal/mol
FMN binding to A. gambiae FMN domain weaker than human domain (fold) [10]: ~4 fold
Kd [10, 17]: 83 ± 2 nM
Kobs [10, 17]: 120±3.19 ×10^5 M^−1
TΔS [10, 17]: -3.58 kcal/mol
n (binding stoichiometry) [10, 17]: 0.98±0.01
ΔG [10, 17]: -9.60 kcal/mol
ΔH [10, 17]: -13.18 ± 0.19 kcal/mol

c1ccc([I+]c2ccccc2)cc1 [diphenyliodonium chloride]
IC50 (AgCPR [6]): 28 ± 2 µM
AgCPR more sensitive to inhibition than hCPR (fold) (AgCPR [6]; cytochrome c reduction, phosphate buffer): ~10 fold

NADP^+
Kobs (hCPR (human CPR)): 145±24.5 ×10^5 M^−1
TΔS (hCPR (human CPR)): -8.91 kcal/mol
n (binding stoichiometry) (hCPR (human CPR)): 1.01±0.12
ΔG (hCPR (human CPR)): -10.55 kcal/mol
ΔH (hCPR (human CPR)): -19.46 kcal/mol and -19.46 ± 2.92 kcal/mol

cytochrome c: horse heart cytochrome c, surrogate electron acceptor for measuring diflavin reductase activity
Km (AgCPR [11]): 23 µM
Km (hCPR [12]): 19 µM

horse heart cytochrome c (from UniProt P00004 1-105) (natural protein)
Km^cytc of NADPH-dependent cytochrome c reduction (steady state, 0-110 µM cytochrome c, phosphate buffer, 25°C) [13]: 19 µM
Km^cytc of NADPH-dependent cytochrome c reduction (steady state, 0-110 µM cytochrome c, phosphate buffer, 25°C) [14]: 23 µM
